Literature values as cited in patent US20220395469A1, “TRANSDERMAL DRUG DELIVERY SYSTEM FOR KETAMINE” (GUANGZHOU DAZHOU BIOMEDICINE LTD., priority 2017, published 2022).

Experiments:
[1] = system: NMDA receptor; settings: in vitro
[2] = not given; remark: listed apart in the source
[3] = three-compartment model, 70-kg human (Fanta et al.)

In the case of CN[C@@]1(c2ccccc2Cl)CCCCC1=O [R-ketamine], the “psychotomimetic side effects and abuse liability” value (Yang et al.) is given as “free of psychotomimetic side effects and abuse liability” and the antidepressant effectiveness (animal model studies, versus S-ketamine (Yang et al.)) is given as “more effective as an antidepressant than S-ketamine”.

For CN[C@]1(c2ccccc2Cl)CCCCC1=O [S-ketamine], the “affinity on NMDA receptor binding relative to R-ketamine” value [1] is given as about 4 fold.

For CNC1(c2ccccc2Cl)CCCCC1=O (centres unmarked) [ketamine], the absolute oral bioavailability ([2]; in humans) is listed as 10-20%, the “systemic (primarily hepatic) clearance” value ([2]; in vivo) is listed as “about 19 ml/min·kg” and the V1 [2, 3] is listed as 133 L. For the same compound, the clearance [2, 3] was 79.8 L/h, the “micro constant k12” value [2, 3] was 0.174 h⁻¹ and the “micro constant k13” value [2, 3] was 1.18 h⁻¹. The “micro constant k21” value [2, 3] was 0.124 h⁻¹ and the “micro constant k31” value [2, 3] was 1.59 h⁻¹.
